The values below come from patent publication US5338725A, “Anti-aggregatory agents for platelets” (The Research Foundation of the State University of New York, priority 1992, dated 1994).

The target of the assay is human platelet-rich plasma (Homo sapiens, UniProt P05106+P08514). In words: In vitro inhibition of ADP-induced aggregation of human platelet-rich plasma (Coller assay). The conditions noted are these: adjusted for fibrinogen concentration (ca. 30 times lower than Coller assay value; 0.1 mg/mL fibrinogen). The assay is classed as cell-based. The protocol: 1. In vitro Inhibition of Aggregation of Human Platelet-Rich Plasma
human platelet-rich plasma, sequence (P08514 32-1039): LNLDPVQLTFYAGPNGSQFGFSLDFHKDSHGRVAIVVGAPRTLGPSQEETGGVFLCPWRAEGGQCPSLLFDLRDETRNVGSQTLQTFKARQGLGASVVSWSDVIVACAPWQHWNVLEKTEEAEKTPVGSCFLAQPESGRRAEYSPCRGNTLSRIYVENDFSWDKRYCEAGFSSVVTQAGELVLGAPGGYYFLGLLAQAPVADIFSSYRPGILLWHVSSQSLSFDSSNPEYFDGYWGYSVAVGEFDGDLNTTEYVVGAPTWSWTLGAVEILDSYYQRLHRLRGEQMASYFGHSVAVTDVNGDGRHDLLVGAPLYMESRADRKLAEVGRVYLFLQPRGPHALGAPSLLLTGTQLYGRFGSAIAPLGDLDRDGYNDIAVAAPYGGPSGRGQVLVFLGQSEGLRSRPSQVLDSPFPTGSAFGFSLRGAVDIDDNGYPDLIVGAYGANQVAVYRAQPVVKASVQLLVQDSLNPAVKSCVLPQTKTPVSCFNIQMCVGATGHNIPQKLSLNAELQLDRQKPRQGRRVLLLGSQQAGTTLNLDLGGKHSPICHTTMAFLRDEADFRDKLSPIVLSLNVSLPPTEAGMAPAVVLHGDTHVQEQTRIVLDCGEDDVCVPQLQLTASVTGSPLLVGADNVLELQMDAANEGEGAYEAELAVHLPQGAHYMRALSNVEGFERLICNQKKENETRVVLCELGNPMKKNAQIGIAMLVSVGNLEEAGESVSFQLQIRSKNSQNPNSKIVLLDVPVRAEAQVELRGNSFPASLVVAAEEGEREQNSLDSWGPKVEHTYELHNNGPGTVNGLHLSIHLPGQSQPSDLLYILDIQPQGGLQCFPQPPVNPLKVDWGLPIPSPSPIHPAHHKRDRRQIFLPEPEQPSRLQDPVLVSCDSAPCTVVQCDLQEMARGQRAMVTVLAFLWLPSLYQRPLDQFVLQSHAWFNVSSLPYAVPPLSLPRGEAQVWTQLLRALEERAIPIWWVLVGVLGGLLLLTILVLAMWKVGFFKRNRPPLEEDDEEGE
human platelet-rich plasma, sequence (P05106 27-788): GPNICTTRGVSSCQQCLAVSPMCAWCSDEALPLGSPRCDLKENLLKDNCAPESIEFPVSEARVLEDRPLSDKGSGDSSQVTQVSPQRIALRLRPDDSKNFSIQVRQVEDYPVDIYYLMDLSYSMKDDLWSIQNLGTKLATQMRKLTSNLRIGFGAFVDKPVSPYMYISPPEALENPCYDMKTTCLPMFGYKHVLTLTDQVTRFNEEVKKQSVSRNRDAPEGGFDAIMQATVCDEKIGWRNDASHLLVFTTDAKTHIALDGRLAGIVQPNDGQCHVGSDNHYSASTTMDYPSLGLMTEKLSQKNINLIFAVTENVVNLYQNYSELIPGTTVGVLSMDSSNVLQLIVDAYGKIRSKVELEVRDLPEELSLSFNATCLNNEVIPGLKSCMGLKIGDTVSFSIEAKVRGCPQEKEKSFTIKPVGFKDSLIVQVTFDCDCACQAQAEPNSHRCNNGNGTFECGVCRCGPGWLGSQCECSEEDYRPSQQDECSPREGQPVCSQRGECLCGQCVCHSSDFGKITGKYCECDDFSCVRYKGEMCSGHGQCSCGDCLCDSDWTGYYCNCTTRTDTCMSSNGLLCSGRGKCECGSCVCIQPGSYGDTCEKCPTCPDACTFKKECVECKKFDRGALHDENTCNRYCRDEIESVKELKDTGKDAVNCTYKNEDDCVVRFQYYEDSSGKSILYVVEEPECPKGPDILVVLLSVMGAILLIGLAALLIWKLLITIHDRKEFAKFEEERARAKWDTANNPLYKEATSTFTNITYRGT
Whole blood (10 ml) was collected from human volunteers and anticoagulated by addition of […] of 40% sodium citrate. Platelet-rich plasma (PRP) was prepared by low speed centrifugation (700 G for 3.5 min at 22° C.). The PRP was removed and the remaining blood was centrifuged at 2000 G for 10 min at 22 ° C. to obtain platelet poor plasma (PPP). The PRP was diluted with PPP to give a final platelet count of 300 000μL with a Coulter Acounter Model ZM (Coulter, Hialeah, Fla.). This diluted PRP (400μL) was placed in a siliconized glass cuvette equipped with a magnetic stirrer and stirred at 1200 rpm at 37° C. Various concentrations of the peptides (36μL) in TRIS buffer (0.01 M TRIS, 0.15 M NaCl, and 0.05% sodium azide, pH 7.4) was added and incubated for 3 rain before platelet aggregation was induced by addition of 54μL of 100μM ADP in HEPES buffer (0.01 M HEPES and 0.15 M NaCl, pH 7.5). The platelet aggregation was determined by a change in light transmission through the PRP on a Lumi Aggregometer 400rS (ChronoLog, Hayertown, PA). The ability of the peptides to inhibit platelet aggregation was evaluated and the IC50 was determined as the concentration of peptide required to produce 50% inhibition of the response to ADP in the presence of the TRIS buffer.
The assay system developed by Coller, which is used throughout the experiment, is different from conventional assay systems in certain aspects. First, the platelets used by Plow et al., Blood, 70, 110 (1987); and Garsky et al., Proc. Natl. Acad. Sci. U.S.A., 86, 4022 (1989) are gel-filtered to remove plasma proteins. Since the gel-filtration treatment may decrease the reactivity of the platelets, our assay avoids this step. The platelet count is adjusted by simply mixing PRP and PPP, which minimizes alterations of the platelets. Second, fibrinogen concentration in the Coller system is different from that of others. As shown in the experimental description of the assay, PRP was obtained from fresh blood and used immediately without further manipulation except for count adjustment. According to measurements obtained using this assay, such plasma contains ca. 3 mg of fibrinogen per 1 mL of plasma. On the other hand, fibrinogen concentration used in the Garsky and Plow assay system is 0.1 mg/mL. The concentration of fibrinogen affects the amount of RGD peptide required to inhibit platelet aggregation, with higher fibrinogen concentrations resulting in higher IC50 values. If there is a linear relationship between these two parameters, the IC50 values obtained from the Coller assay should be ca. 30 times larger than those obtained from the Plow et al. assay or the Garsky et al. assay. The adjusted IC50 values are presented in column 4 of Table showing the inhibitory activities of RGD peptides.
The following peptides were synthesized, and their amino acid contents were analyzed as described in procedures 3-7, above. In addition, their ability to inhibit aggregation of human platelet rich plasma was assessed as described in procedures 1 and 2, above. Their respective IC50 values, as well as their estimated IC50 adjusted to the values according the method of Plow et al., (vide supra) are listed in Table 1.

Non-standard residues stand in square brackets, D forms with d. Residues, ends and D or L forms follow the SMILES beside them. 3Abz = Nc1cccc(C(=O)O)c1; 2Abz = Nc1ccccc1C(=O)O

As for `CC(C)[C@H](NC(=O)[C@H](CC(=O)O)NC(=O)CNC(=O)[C@H](CCCNC(=N)N)NC(=O)CN)C(=O)NCC(=O)Nc1ccccc1C(=O)NCC(=O)N[C@@H](CCCNC(=N)N)C(=O)NCC(=O)N[C@@H](CC(=O)O)C(=O)N[C@@H](Cc1ccccc1)C(N)=O` [Example 28, GRGDVG--(o)Abz--GRGDF--NH2] (H-GRGDVG[2Abz]GRGDF-NH2), the “IC50 (M)* Estimated IC50 adjusted to the values by the method of Plow et al.” value was 3.1e-06 M. The value for `CC(C)[C@H](NC(=O)[C@H](CC(=O)O)NC(=O)CNC(=O)[C@H](CCCNC(=N)N)NC(=O)CN)C(=O)NCC(=O)Nc1cccc(C(=O)NCC(=O)N[C@@H](CCCNC(=N)N)C(=O)NCC(=O)N[C@@H](CC(=O)O)C(=O)N[C@@H](Cc2ccccc2)C(N)=O)c1` [Example 29, GRGDVG--(m)Abz--GRGDF--NH2] (H-GRGDVG[3Abz]GRGDF-NH2) was 1.5e-06 M.
